# In patent publication US8247211B2, “Glycopeptide antibiotics” (American Cyanamid Company, priority 2001, dated 2012):
# Columns and labels:
# Assay in all cases: In vitro antibacterial evaluation: minimum inhibitory concentration (MIC), broth dilution method
# Type in all cases: cell-based
# [1] = tested on: Enterococcus sp.; settings: for MIC Enterococcus faecalis (ATCC 29212): strain ATCC 29212; for MIC Enterococcus faecalis (GC 2242): strain GC 2242; for MIC Enterococcus faecium (GC 2243): strain GC 2243; for MIC Enterococcus faecalis (GC 2691): strain GC 2691; for MIC Enterococcus faecalis (GC 3059): strain GC 3059; for MIC Enterococcus faecalis (GC 4552): strain GC 4552; for MIC Enterococcus faecalis (GC 4553): strain GC 4553; for MIC Enterococcus faecalis (GC 4554): strain GC 4554; for MIC Enterococcus faecium (GC 4556): strain GC 4556; for MIC Enterococcus faecium (GC 4557): strain GC 4557; for MIC Enterococcus avium (GC 4558): strain GC 4558; for MIC Enterococcus faecalis (GC 6189): strain GC 6189
# Experimental: (§1) The minimum inhibitory concentration (MIC), the lowest concentration of the antibiotic which inhibits growth of the test organism, is determined by the broth dilution method using Muller-Hinton II […] (Baltimore Biological Laboratories) following the recommendations of the National Committee for Clinical Laboratory Standards [Methods for dilution antimicrobial susceptibility tests for bacteria that grow aerobically, approved standard M7-A2, National Committee for Clinical Laboratory Standards, Villanova, Pa].
# (§2) An inoculum level of 5×10^5 CFU/mL, and a range of antibiotic concentrations (64-0.06 μg/mL) is used. […] The test organisms include a spectrum of Gram-positive bacteria comprised of Staphylococcus sp., Streptococcus sp. and Enterococcus sp. These organisms include recent clinical isolates that are resistant to methicillin, penicillin and/or vancomycin.
# [2] = tested on: Escherichia coli; settings: for MIC Escherichia coli (ATCC 25922): strain ATCC 25922; for MIC Escherichia coli (GC 4559): strain GC 4559; for MIC Escherichi coli (GC 4560): strain GC 4560
# Experimental: as §1, §2
# [3] = tested on: Streptococcus sp.; settings: for MIC Streptococcus pneumoniae (ATCC 6301): strain ATCC 6301; for MIC Streptococcus pneumoniae (GC 1894): strain GC 1894; for MIC Streptococcus pyogenes (GC 4563): strain GC 4563; for MIC Streptococcus agalactiae (GC 4564): strain GC 4564; for MIC Streptococcus pneumoniae (GC 4565): strain GC 4565
# Experimental: as §1, §2
# [4] = tested on: Staphylococcus sp.; settings: broth dilution, 18 hours at 35° C.
# Experimental: as §1, §2
smiles,measurement,setting,value
"COc1cc(OC)cc(C2OCC3OC(OC4C(CO)OC(Oc5ccc(CC6NC(=O)C(C(C)c7ccccc7)NC(=O)CNC(=O)C(CO)NC(=O)C(C(O)C7CNC(=N)N7C7OC(CO)C(O)C(O)C7O)NC(=O)C(C(O)C7CNC(=N)N7)NC6=O)cc5)C(O)C4O)C(O)C(O)C3O2)c1 (stereo not drawn) [Example 150, Cyclo[glycyl-β-methylphenylalanyl-O-[4-O-[4,6-O-(3,5-dimethoxybenzylidene)hexopyranosyl]-hexopyranosyl]tyrosyl-3-(2-iminoimidazolidin-4-yl)seryl-3-(3-hexopyranosyl-2-iminoimidazolidin-4-yl)serylseryl]]",MIC Enterococcus faecalis (ATCC 29212),[1],8 µg/mL
same,MIC Enterococcus faecalis (GC 2242),[1],4 µg/mL
same,MIC Enterococcus faecium (GC 2243),[1],8 µg/mL
same,MIC Enterococcus faecalis (GC 2691),[1],4 µg/mL
same,MIC Enterococcus faecalis (GC 3059),[1],8 µg/mL
same,MIC Enterococcus faecalis (GC 4552),[1],8 µg/mL
same,MIC Enterococcus faecalis (GC 4553),[1],8 µg/mL
same,MIC Enterococcus faecalis (GC 4554),[1],8 µg/mL
same,MIC Enterococcus faecium (GC 4556),[1],8 µg/mL
same,MIC Enterococcus faecium (GC 4557),[1],4 µg/mL
same,MIC Enterococcus avium (GC 4558),[1],8 µg/mL
same,MIC Enterococcus faecalis (GC 6189),[1],8 µg/mL
same,MIC Escherichia coli (ATCC 25922),[2],>64 µg/mL
same,MIC Escherichia coli (GC 4559),[2],32 µg/mL
same,MIC Escherichi coli (GC 4560),[2],1 µg/mL
same,MIC Streptococcus pneumoniae (ATCC 6301),[3],0.25 µg/mL
same,MIC Streptococcus pneumoniae (GC 1894),[3],0.12 µg/mL
same,MIC Streptococcus pyogenes (GC 4563),[3],0.5 µg/mL
same,MIC Streptococcus agalactiae (GC 4564),[3],1 µg/mL
same,MIC Streptococcus pneumoniae (GC 4565),[3],0.25 µg/mL
same,MIC Coagulase Negative Staphylococcus (GC 4547),[4]; 5×10^5 CFU/mL,2 µg/mL
same,MIC Coagulase Negative Staphylococcus (GC 4548),[4]; 5×10^5 CFU/mL,1 µg/mL
same,MIC Coagulase Negative Staphylococcus (GC 4549),[4]; 5×10^5 CFU/mL,1 µg/mL
same,MIC Coagulase Negative Staphylococcus (GC 4551),[4]; 5×10^5 CFU/mL,2 µg/mL
same,MIC Coagulase Negative Staphylococcus (GC 6257),[4]; 5×10^5 CFU/mL,1 µg/mL
same,MIC Staphylococcus aureus (ATCC 29213),[4]; 5×10^5 CFU/mL,2 µg/mL
same,MIC Staphylococcus aureus (GC 1131),[4]; 5×10^5 CFU/mL,4 µg/mL
same,MIC Staphylococcus aureus (GC 3051),[4]; 5×10^5 CFU/mL,2 µg/mL
same,MIC Staphylococcus aureus (GC 3053),[4]; 5×10^5 CFU/mL,8 µg/mL
same,MIC Staphylococcus aureus (GC 4541),[4]; 5×10^5 CFU/mL,2 µg/mL
same,MIC Staphylococcus aureus (GC 4542),[4]; 5×10^5 CFU/mL,2 µg/mL
same,MIC Staphylococcus aureus (GC 4544),[4]; 5×10^5 CFU/mL,2 µg/mL
same,MIC Staphylococcus aureus (GC 4545),[4]; 5×10^5 CFU/mL,2 µg/mL
same,MIC Staphylococcus aureus-SMITH (GC 4543),[4]; 5×10^5 CFU/mL,2 µg/mL
same,MIC Staphylococcus haemolyticus (GC 4546),[4]; 5×10^5 CFU/mL,1 µg/mL
same,MIC Staphylococcus aureus (ATCC 29213),[4]; strain ATCC 29213,2 µg/mL
same,MIC Staphylococcus aureus (GC 1131),[4]; strain GC 1131,4 µg/mL
same,MIC Staphylococcus aureus (GC 3051),[4]; strain GC 3051,2 µg/mL
same,MIC Staphylococcus aureus (GC 3053),[4]; strain GC 3053,8 µg/mL
same,MIC Staphylococcus aureus (GC 4541),[4]; strain GC 4541,2 µg/mL
same,MIC Staphylococcus aureus (GC 4542),[4]; strain GC 4542,2 µg/mL
same,MIC Staphylococcus aureus-SMITH (GC 4543),[4]; strain GC 4543,2 µg/mL
same,MIC Staphylococcus aureus (GC 4544),[4]; strain GC 4544,2 µg/mL
same,MIC Staphylococcus aureus (GC 4545),[4]; strain GC 4545,2 µg/mL
same,MIC Staphylococcus haemolyticus (GC 4546),[4]; strain GC 4546,1 µg/mL
same,MIC Coagulase Negative Staphylococcus (GC 4547),[4]; strain GC 4547,2 µg/mL
same,MIC Coagulase Negative Staphylococcus (GC 4548),[4]; strain GC 4548,1 µg/mL
same,MIC Coagulase Negative Staphylococcus (GC 4549),[4]; strain GC 4549,1 µg/mL
same,MIC Coagulase Negative Staphylococcus (GC 4551),[4]; strain GC 4551,2 µg/mL
same,MIC Coagulase Negative Staphylococcus (GC 6257),[4]; strain GC 6257,1 µg/mL
"COc1cc(OC)cc(C2OC3C(OC4C(CO)OC(Oc5ccc(CC6NC(=O)C(C(C)c7ccccc7)NC(=O)CNC(=O)C(CO)NC(=O)C(C(O)C7CNC(=N)N7C7OC(CO)C(O)C(O)C7O)NC(=O)C(C(O)C7CNC(=N)N7)NC6=O)cc5)C(O)C4O)OC(CO)C(O)C3O2)c1 (stereo not drawn) [Example 150a, Cyclo[glycyl-β-methylphenylalanyl-O-[4-O-[2,3-O-(3,5-dimethoxybenzylidene)hexopyranosyl]-hexopyranosyl]tyrosyl-3-(2-iminoimidazolidin-4-yl)seryl-3-(3-hexopyranosyl-2-iminoimidazolidin-4-yl)serylseryl]]",MIC Enterococcus faecalis (ATCC 29212),[1],>64 µg/mL
same,MIC Enterococcus faecalis (GC 2242),[1],>64 µg/mL
same,MIC Enterococcus faecium (GC 2243),[1],>64 µg/mL
same,MIC Enterococcus faecalis (GC 2691),[1],>64 µg/mL
same,MIC Enterococcus faecalis (GC 3059),[1],>64 µg/mL
same,MIC Enterococcus faecalis (GC 4552),[1],>64 µg/mL
same,MIC Enterococcus faecalis (GC 4553),[1],>64 µg/mL
same,MIC Enterococcus faecalis (GC 4554),[1],>64 µg/mL
same,MIC Enterococcus faecium (GC 4556),[1],>64 µg/mL
same,MIC Enterococcus faecium (GC 4557),[1],16 µg/mL
same,MIC Enterococcus avium (GC 4558),[1],64 µg/mL
same,MIC Enterococcus faecalis (GC 6189),[1],>64 µg/mL
same,MIC Escherichia coli (ATCC 25922),[2],>64 µg/mL
same,MIC Escherichia coli (GC 4559),[2],>64 µg/mL
same,MIC Escherichi coli (GC 4560),[2],16 µg/mL
same,MIC Streptococcus pneumoniae (ATCC 6301),[3],8 µg/mL
same,MIC Streptococcus pneumoniae (GC 1894),[3],8 µg/mL
same,MIC Streptococcus pyogenes (GC 4563),[3],16 µg/mL
same,MIC Streptococcus agalactiae (GC 4564),[3],32 µg/mL
same,MIC Streptococcus pneumoniae (GC 4565),[3],16 µg/mL
same,MIC Coagulase Negative Staphylococcus (GC 4547),[4]; 5×10^5 CFU/mL,16 µg/mL
same,MIC Coagulase Negative Staphylococcus (GC 4548),[4]; 5×10^5 CFU/mL,8 µg/mL
same,MIC Coagulase Negative Staphylococcus (GC 4549),[4]; 5×10^5 CFU/mL,8 µg/mL
same,MIC Coagulase Negative Staphylococcus (GC 4551),[4]; 5×10^5 CFU/mL,32 µg/mL
same,MIC Coagulase Negative Staphylococcus (GC 6257),[4]; 5×10^5 CFU/mL,8 µg/mL
same,MIC Staphylococcus aureus (ATCC 29213),[4]; 5×10^5 CFU/mL,32 µg/mL
same,MIC Staphylococcus aureus (GC 1131),[4]; 5×10^5 CFU/mL,32 µg/mL
same,MIC Staphylococcus aureus (GC 3051),[4]; 5×10^5 CFU/mL,32 µg/mL
same,MIC Staphylococcus aureus (GC 3053),[4]; 5×10^5 CFU/mL,32 µg/mL
same,MIC Staphylococcus aureus (GC 4541),[4]; 5×10^5 CFU/mL,16 µg/mL
same,MIC Staphylococcus aureus (GC 4542),[4]; 5×10^5 CFU/mL,32 µg/mL
same,MIC Staphylococcus aureus (GC 4544),[4]; 5×10^5 CFU/mL,32 µg/mL
same,MIC Staphylococcus aureus (GC 4545),[4]; 5×10^5 CFU/mL,16 µg/mL
same,MIC Staphylococcus aureus-SMITH (GC 4543),[4]; 5×10^5 CFU/mL,16 µg/mL
same,MIC Staphylococcus haemolyticus (GC 4546),[4]; 5×10^5 CFU/mL,16 µg/mL
same,MIC Staphylococcus aureus (ATCC 29213),[4]; strain ATCC 29213,32 µg/mL
same,MIC Staphylococcus aureus (GC 1131),[4]; strain GC 1131,32 µg/mL
same,MIC Staphylococcus aureus (GC 3051),[4]; strain GC 3051,32 µg/mL
same,MIC Staphylococcus aureus (GC 3053),[4]; strain GC 3053,32 µg/mL
same,MIC Staphylococcus aureus (GC 4541),[4]; strain GC 4541,16 µg/mL
same,MIC Staphylococcus aureus (GC 4542),[4]; strain GC 4542,32 µg/mL
same,MIC Staphylococcus aureus-SMITH (GC 4543),[4]; strain GC 4543,16 µg/mL
same,MIC Staphylococcus aureus (GC 4544),[4]; strain GC 4544,32 µg/mL
same,MIC Staphylococcus aureus (GC 4545),[4]; strain GC 4545,16 µg/mL
same,MIC Staphylococcus haemolyticus (GC 4546),[4]; strain GC 4546,16 µg/mL
same,MIC Coagulase Negative Staphylococcus (GC 4547),[4]; strain GC 4547,16 µg/mL
same,MIC Coagulase Negative Staphylococcus (GC 4548),[4]; strain GC 4548,8 µg/mL
same,MIC Coagulase Negative Staphylococcus (GC 4549),[4]; strain GC 4549,8 µg/mL
same,MIC Coagulase Negative Staphylococcus (GC 4551),[4]; strain GC 4551,32 µg/mL
same,MIC Coagulase Negative Staphylococcus (GC 6257),[4]; strain GC 6257,8 µg/mL
